From US11001564B2, “Substituted chromane-8-carboxamide compounds and analogues thereof, and methods using same” (priority 2016, dated 2021)
Where two headings read alike, the source gives them in different places.

Tested on: HBV rcDNA in HepDE19 cells
Assay: HepDE19 assay with bDNA quantitation of HBV rcDNA
Assay type: cell-based, hepatitis B virus (HBV)
Description: HepDE19 Assay with bDNA Quantitation of HBV rcDNA:
HepDE19 cell culture system is a HepG2 (human hepatocarcinoma) derived cell line that supports HBV DNA replication and cccDNA formation in a tetracycline (Tet)-regulated manner and produces HBV rcDNA and a detectable reporter molecule dependent on the production and maintenance of cccDNA (Guo, et al., 2007, J. Virol. 81:12472-12484).
HepDE19 (50,000 cells/well) were plated in 96 well collagen-coated tissue-culture treated microtiter plates in DMEM/F12 medium supplemented with 10% fetal bovine serum, 1% penicillin-streptomycin and 1 μg/mL tetracycline and incubated in a humidified incubator at 37° C. and 5% CO2 overnight. Next day, the cells were switched to fresh medium without tetracycline and incubated for 4 hours at 37° C. and 5% CO2. The cells were treated with fresh Tet-free medium with compounds at concentrations starting at 25 μM and a serial, ½ log, 8-point, titration series in duplicate. The final DMSO concentration in the assay was 0.5%. The plates were incubated for 7 days in a humidified incubator at 37° C. and 5% CO2. Following a 7 day-incubation, the level of rcDNA present in the inhibitor-treated wells was measured using a Quantigene 2.0 bDNA assay kit (Affymetrix, Santa Clara, Calif.) with HBV specific custom probe set and manufacturers instructions. Concurrently, the effect of compounds on cell viability was assessed using replicate plates, plated at a density of 5,000 cells/well and incubated for 4 days, to determine the ATP content as a measure of cell viability using the cell-titer glo reagent (CTG; Promega Corporation, Madison, Wis.) as per manufacturer's instructions. The plates were read using a Victor luminescence plate reader (PerkinElmer Model 1420 Multilabel counter) and the relative luminescence units (RLU) data generated from each well was calculated as % inhibition of the untreated control wells and analyzed using XL-Fit module in Microsoft Excel to determine EC50 and EC90 (bDNA) and CC50 (CTG) values using a 4-parameter curve fitting algorithm.
Representative compounds of the invention were tested for their ability to inhibit formation of relaxed circular DNA (rcDNA) in a HepDE19 assay, as described elsewhere herein.

[1] = HepDE19 cells, 7 day incubation, rcDNA by Quantigene 2.0 bDNA assay, read-out: DE-19 bDNA EC50
[2] = read-out: DE-19 bDNA EC50, HepDE19 cells, 7 day incubation, rcDNA by Quantigene 2.0 bDNA assay
[3] = Hepatitis B virus, HepDE19, 168 h, HepDE19 cells, 7 day incubation, rcDNA by Quantigene 2.0 bDNA assay, read-out: DE-19 bDNA EC50
[4] = Hepatitis B virus, HepDE19, 168 h, read-out: DE-19 bDNA EC50, HepDE19 cells, 7 day incubation, rcDNA by Quantigene 2.0 bDNA assay

## COC1CCOc2c(C(=O)Nc3ccc(F)c(F)c3)cccc21 (single isomer, unassigned) [Compound 6, N-(3,4-difluorophenyl)-4-methoxychromane-8-carboxamide]
[1]
  EC50: 4.3 µM

## COC1CCOc2c(C(=O)Nc3ccc(F)c(F)c3)cccc21 (single isomer, unassigned) [Compound 7, N-(3,4-difluorophenyl)-4-methoxychromane-8-carboxamide]
[1]
  EC50: 1.8 µM

## O=C(N[C@H]1CCOc2c(C(=O)Nc3ccc(F)c(F)c3)cccc21)OC1CCOC1 (single isomer, unassigned) [Compound 25, Tetrahydrofuran-3-yl-(8-((3,4-difluorophenyl)carbamoyl)chroman-4-yl)carbamate]
[2]
  EC50: 23 µM

## O=C(N[C@H]1CCOc2c(C(=O)Nc3ccc(F)c(F)c3)cccc21)OC1CCOC1 (single isomer, unassigned) [Compound 26, Tetrahydrofuran-3-yl-(8-((3,4-difluorophenyl)carbamoyl)chroman-4-yl)carbamate]
[2]
  EC50: 7.4 µM

## O=C(Nc1ccc(F)c(F)c1)c1cccc2c1OCCC2c1ccncc1 (single isomer, unassigned) [Compound 69, N-(3,4-Difluorophenyl)-4-(pyridin-4-yl)chromane-8-carboxamide]
[3]
  EC50: 12 µM

## O=C(Nc1ccc(F)c(F)c1)c1cccc2c1OCCC2c1ccncc1 (single isomer, unassigned) [Compound 70, N-(3,4-Difluorophenyl)-4-(pyridin-4-yl)chromane-8-carboxamide]
[1]
  EC50: 23 µM

## O=C(N[C@H]1CCOc2c(C(=O)Nc3ccc(F)c(F)c3)cccc21)OCC1CCCCN1 (single isomer, unassigned) [Compound 85]
[3]
  EC50: 19 µM

## O=C(N[C@H]1CCOc2c(C(=O)Nc3ccc(F)c(F)c3)cccc21)OCC1CCCCN1 (single isomer, unassigned) [Compound 86]
[1]
  EC50: 15 µM

## O=C(N[C@H]1CCOc2c(C(=O)Nc3ccc(F)c(F)c3)cccc21)OCC1CCCNC1 (single isomer, unassigned) [Compound 87]
[3]
  EC50: 16 µM

## O=C(N[C@H]1CCOc2c(C(=O)Nc3ccc(F)c(F)c3)cccc21)OCC1CCCNC1 (single isomer, unassigned) [Compound 94]
[1]
  EC50: 22 µM

## CN1CCCC(COC(=O)N[C@H]2CCOc3c(C(=O)Nc4ccc(F)c(F)c4)cccc32)C1 (single isomer, unassigned) [Compound 98]
[3]
  EC50: 23 µM

## CN1CCCC(COC(=O)N[C@H]2CCOc3c(C(=O)Nc4ccc(F)c(F)c4)cccc32)C1 (single isomer, unassigned) [Compound 99]
[1]
  EC50: 25 µM

## O=C(N[C@H]1CCOc2c(C(=O)Nc3ccc(F)c(F)c3)cccc21)OCC1CCNC1 (single isomer, unassigned) [Compound 108]
[3]
  EC50: 21 µM

## O=C(N[C@H]1CCOc2c(C(=O)Nc3ccc(F)c(F)c3)cccc21)OCC1CCNC1 (single isomer, unassigned) [Compound 109]
[1]
  EC50: 21 µM

## CNC(=O)CC1CCOc2c(C(=O)Nc3ccc(F)c(F)c3)cccc21 (single isomer, unassigned) [Compound 131, N-(3,4-difluorophenyl)-4-(2-(methylamino)-2-oxoethyl) chromane-8-carboxamide]
[3]
  EC50: 20 µM

## CNC(=O)CC1CCOc2c(C(=O)Nc3ccc(F)c(F)c3)cccc21 (single isomer, unassigned) [Compound 132, N-(3,4-difluorophenyl)-4-(2-(methylamino)-2-oxoethyl) chromane-8-carboxamide]
[1]
  EC50: 21 µM

## CC(=O)N1CCCC1COC(=O)N[C@H]1CCOc2c(C(=O)Nc3ccc(F)c(F)c3)cccc21 (single isomer, unassigned) [Compound 139]
[4]
  EC50: 4.6 µM

## CC(=O)N1CCC(COC(=O)N[C@H]2CCOc3c(C(=O)Nc4ccc(F)c(F)c4)cccc32)C1 (single isomer, unassigned) [Compound 144]
[4]
  EC50: 5.4 µM

## CC(=O)N1CCC(COC(=O)N[C@H]2CCOc3c(C(=O)Nc4ccc(F)c(F)c4)cccc32)C1 (single isomer, unassigned) [Compound 145]
[2]
  EC50: 7 µM

## COC(=O)NC1CCN(C)c2c(C(=O)Nc3ccc(F)c(F)c3)cccc21 (single isomer, unassigned) [Compound 177, Methyl (8-((3,4-difluorophenyl)carbamoyl)-1-methyl-1,2,3,4-tetrahydroquinolin-4-yl)carbamate]
[4]
  EC50: 2.3 µM

## COC(=O)NC1CCN(C)c2c(C(=O)Nc3ccc(F)c(Cl)c3)cccc21 (single isomer, unassigned) [Compound 178, Methyl (8-((3-chloro-4-fluorophenyl)carbamoyl)-1-methyl-1,2,3,4-tetrahydroquinolin-4-yl)carbamate]
[2]
  EC50: 13 µM

## COC(=O)NC1CCN(C)c2c(C(=O)Nc3ccc(F)c(Cl)c3)cccc21 (single isomer, unassigned) [Compound 179, Methyl (8-((3-chloro-4-fluorophenyl)carbamoyl)-1-methyl-1,2,3,4-tetrahydroquinolin-4-yl)carbamate]
[2]
  EC50: 0.94 µM

## CN1CCC(NC(=O)OCc2ccccn2)c2cccc(C(=O)Nc3ccc(F)c(F)c3)c21 (single isomer, unassigned) [Compound 180, Pyridin-2-ylmethyl (8-((3,4-difluorophenyl)carbamoyl)-1-methyl-1,2,3,4-tetrahydroquinolin-4-yl)carbamate]
[1]
  EC50: 15 µM

## CN1CCC(NC(=O)OCc2ccccn2)c2cccc(C(=O)Nc3ccc(F)c(F)c3)c21 (single isomer, unassigned) [Compound 181, Pyridin-2-ylmethyl (8-((3,4-difluorophenyl)carbamoyl)-1-methyl-1,2,3,4-tetrahydroquinolin-4-yl)carbamate]
[1]
  EC50: 2.5 µM

## CN1CCC(NC(=O)OCc2ccccn2)c2cccc(C(=O)Nc3ccc(F)c(Cl)c3)c21 (single isomer, unassigned) [Compound 182, Pyridin-2-ylmethyl (8-((3-chloro-4-fluorophenyl)carbamoyl)-1-methyl-1,2,3,4-tetrahydroquinolin-4-yl)carbamate]
[1]
  EC50: 12 µM

## CN1CCC(NC(=O)OCc2ccccn2)c2cccc(C(=O)Nc3ccc(F)c(Cl)c3)c21 (single isomer, unassigned) [Compound 183, Pyridin-2-ylmethyl (8-((3-chloro-4-fluorophenyl)carbamoyl)-1-methyl-1,2,3,4-tetrahydroquinolin-4-yl)carbamate]
[1]
  EC50: 0.72 µM

## CC(C)NS(=O)(=O)N[C@H]1CCOc2c(C(=O)Nc3ccc(F)c(F)c3)cccc21 (stereo in doubt) [Compound 15]
[3]
  EC50: 9.7 µM

## O=C(Nc1cccc(Cl)c1)c1cccc2c1OCCC2 [Compound 1, N-(3-chlorophenyl)chromane-8-carboxamide]
[3]
  EC50: 23 µM

## O=C1CCOc2c1cccc2C(=O)Nc1ccc(F)c(F)c1 [Compound 2, N-(3,4-difluorophenyl)-4-oxochromane-8-carboxamide]
[3]
  EC50: 2.3 µM

## O=C(Nc1ccc(F)c(F)c1)c1cccc2c1OCCC2O (stereo not drawn) [Compound 3, N-(3,4-difluorophenyl)-4-hydroxychromane-8-carboxamide]
[3]
  EC50: 3.4 µM

## O=C(Nc1ccc(F)c(F)c1)c1cccc2c1OCC[C@H]2O [Compound 4, (R)-N-(3,4-difluorophenyl)-4-hydroxychromane-8-carboxamide]
[3]
  EC50: 2.2 µM

## O=C(Nc1ccc(F)c(F)c1)c1cccc2c1OCC[C@@H]2O [Compound 5, (S)-N-(3,4-difluorophenyl)-4-hydroxychromane-8-carboxamide]
[3]
  EC50: 3.9 µM

## COC(=O)N[C@H]1CCOc2c(C(=O)Nc3ccc(F)c(F)c3)cccc21 [Compound 8, methyl (S)-(8-((3,4-difluorophenyl)carbamoyl)chroman-4-yl)carbamate]
[4]
  EC50: 2.3 µM

## CCC(=O)N[C@H]1CCOc2c(C(=O)Nc3ccc(F)c(F)c3)cccc21 [Compound 10, N-(3,4-Difluorophenyl)-4-propionamidochromane-8-carboxamide]
[3]
  EC50: 5.8 µM

## COC(=O)N[C@@H]1CCOc2c(C(=O)Nc3ccc(F)c(F)c3)cccc21 [Compound 11, methyl (R)-(8-((3,4-difluorophenyl)carbamoyl)chroman-4-yl)carbamate]
[4]
  EC50: 21 µM

## O=C(N[C@H]1CCOc2c(C(=O)Nc3ccc(F)c(F)c3)cccc21)c1cncs1 [Compound 12, N-(8-((3,4-difluorophenyl)carbamoyl)chroman-4-yl)thiazole-5-carboxamide]
[3]
  EC50: 8.3 µM
